This is an account of results in article PMC8330735 (Journal of Enzyme Inhibition and Medicinal Chemistry, 2021).

pIC50: −log10 of the molar value.

One data set concerns the target T1, human recombinant COX-2 (Homo sapiens, UniProt P35354).
T1 sequence (P35354 18-604): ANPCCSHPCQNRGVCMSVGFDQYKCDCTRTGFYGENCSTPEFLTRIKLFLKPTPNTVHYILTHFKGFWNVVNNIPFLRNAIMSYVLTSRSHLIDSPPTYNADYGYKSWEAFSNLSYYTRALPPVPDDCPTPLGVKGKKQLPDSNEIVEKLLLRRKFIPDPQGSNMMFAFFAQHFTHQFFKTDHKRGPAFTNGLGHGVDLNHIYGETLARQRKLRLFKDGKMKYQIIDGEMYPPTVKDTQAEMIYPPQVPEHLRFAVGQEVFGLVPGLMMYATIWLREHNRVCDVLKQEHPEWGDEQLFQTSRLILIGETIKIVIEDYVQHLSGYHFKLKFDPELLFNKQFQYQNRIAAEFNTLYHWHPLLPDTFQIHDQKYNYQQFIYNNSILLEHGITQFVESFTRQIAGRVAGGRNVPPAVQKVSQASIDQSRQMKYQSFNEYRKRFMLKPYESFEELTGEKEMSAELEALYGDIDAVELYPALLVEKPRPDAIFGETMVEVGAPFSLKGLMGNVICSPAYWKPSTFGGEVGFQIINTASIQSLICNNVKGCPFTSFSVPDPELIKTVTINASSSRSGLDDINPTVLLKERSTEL
Briefly: In vitro COX-2 inhibitory assay (colorimetric Cayman kit). Particulars: for Selectivity Index (SI): COX-1 IC50/COX-2 IC50.

Description for human recombinant COX-2: All the newly synthesised compounds were tested for their ability to inhibit COX-1 and COX-2 enzymes using a screening assay method.

As to `CC(C)Cc1ccc(C(C)C(=O)NN2C(=O)c3ccccc3N(C)C2c2ccc([N+](=O)[O-])cc2)cc1` (stereo not shown) [7c, 2-(4-Isobutylphenyl)-N-(1-methyl-2-(4-nitrophenyl)-4-oxo-1,4-dihydroquinazolin-3(2H)-yl) propenamide], the melting point (as a rule, the temperature of the solid-liquid transition) lay in the range of 111 to 116 °C. On human recombinant COX-2, the pIC50 (as a rule, −log10 of the IC50, conventionally taken in molar units) is 7.43 and the “Selectivity Index (SI)” value came out at 398.11.

For `NNC(=O)CSc1nc2ccccc2c(=O)n1NC(=O)Cc1ccccc1` [13b, N-(2-((2-hydrazinyl-2-oxoethyl)thio)-4-oxoquinazolin-3(4H)-yl)-2-phenylacetamide], the melting point was 210 to 215 °C. Also, on human recombinant COX-2, the pIC50 is 7.35 and the “Selectivity Index (SI)” value was 373.77. Moreover, the “Selectivity Index (SI)” value at human recombinant COX-2 (listed as 13 b) is reported as 373.
